Data as given in patent US20160322588A1, “Organic Transistor, Compound, Organic Semiconductor Material for Non-Light-Emitting Organic Semiconductor Device, Material for Organic Transistor, Coating Solution for Non-Light-Emitting Organic Semiconductor Device, and Organic Semiconductor Film for Non-Light-Emitting Organic Semiconductor Device” (FUJIFILM Corporation, priority 2014, published 2016).

assay: Solubility in toluene; type: physicochemical; details: 20 mg mixed with toluene (1 mL)
Description: B: Incompletely dissolved.

SMILES | Solubility
CCCCCCCCCCCCc1cc2c(ccc3c2sc2c4ccc5sc(CCCCCCCCCCCC)cc5c4sc32)s1 [Compound 4] | A (Completely dissolved.)
CCCCCCCCc1cc2c(ccc3c2sc2c4ccc5sccc5c4sc32)s1 [Compound 44] | A (Completely dissolved.)
CCCCCCCCCCCCCCc1cc2ccsc2c2sc3c(sc4c5sccc5cc(CCCCCCCCCCCCCC)c43)c12 [Compound 39] | A (Completely dissolved.)
CCCCCCCCc1cc2c(ccc3c2sc2c4ccc5sc(CCCCCCCC)cc5c4sc32)s1 [Compound 2] | A (Completely dissolved.)
CCCCCCCCCCCCCCc1cc2sccc2c2sc3c(sc4c5ccsc5cc(CCCCCCCCCCCCCC)c43)c12 [Compound 40] | A (Completely dissolved.)
CCCCCCCCc1cc2ccc3c(sc4c5ccc6ccsc6c5sc34)c2s1 [Compound 43] | A (Completely dissolved.)
CCCCCCCCOc1cc2ccc3c(sc4c5ccc6cc(OCCCCCCCC)sc6c5sc34)c2s1 [Compound 37] | A (Completely dissolved.)
CCCCCCCCC#Cc1cc2c(ccc3c2sc2c4ccc5sc(C#CCCCCCCCC)cc5c4sc32)s1 [Compound 30] | A (Completely dissolved.)
CCCCCCCCOc1cc2c(ccc3c2sc2c4ccc5sc(OCCCCCCCC)cc5c4sc32)s1 [Compound 38] | A (Completely dissolved.)
CCCCCCCCc1cc2ccc3c(sc4c5ccc6cc(CCCCCCCC)sc6c5sc34)c2s1 [Compound 1] | A (Completely dissolved.)
CCCCCCCCCCCCc1cc2ccc3c(sc4c5ccc6cc(CCCCCCCCCCCC)sc6c5sc34)c2s1 [Compound 3] | A (Completely dissolved.)
CCCCCCCCC#Cc1cc2ccc3c(sc4c5ccc6cc(C#CCCCCCCCC)sc6c5sc34)c2s1 [Compound 29] | A (Completely dissolved.)

same assay, conditions: organic solvent or mixture, thermodynamic from solid; 20 mg mixed with toluene (1 mL); read-out: Solubility

SMILES | Solubility
CC(C)CCCC(C)CCc1cc2ccc3c(sc4c5ccc6cc(CCC(C)CCCC(C)C)sc6c5sc34)c2s1 (centres unmarked) [Compound 5] | > 20 mg/mL
Cn1ccc2c3sc4c5ccc6c(ccn6C)c5sc4c3ccc21 [compound 1, reference compound] | < 20 mg/mL
CCc1cc2cc3c(cc2s1)sc1c2cc4cc(CC)sc4cc2sc31 [compound 2, reference compound] | < 20 mg/mL
CCCC(C)n1ccc2c3sc4c5ccc6c(ccn6C(C)CCC)c5sc4c3ccc21 (centres unmarked) [compound 3, reference compound] | < 20 mg/mL
c1cc2cc3sc4c5cc6sccc6cc5sc4c3cc2s1 [compound 4, reference compound] | < 20 mg/mL
